In patent publication US9526737B2, “Oxysterols for activation of hedgehog signaling, osteoinduction, antiadipogenesis, and Wnt signaling” (THE REGENTS OF THE UNIVERSITY OF CALIFORNIA, priority 2007, dated 2016):

Legend:
Assay type in all cases: cell-based
[1] = test system: hedgehog signaling pathway; test: Hedgehog signaling pathway activation (8X-Gli reporter, Gli 1 and Patched Q-RT-PCR, cyclopamine inhibition); settings: M2 cells
Protocol: M2-10B4 bone marrow stromal cells were transfected with an 8XGli luciferase reporter or the empty vector (pGL3b). Cells were subsequently treated with control vehicle, 5 μM Oxy49, or 400 ng/ml recombinant human sonic hedgehog (Shh) as positive control. After 48 hours of treatments, reporter luciferase activity was measured and normalized to Renilla luciferase activity (See FIG. 14). […] M2-10B4 bone marrow stromal cells were transfected with an 8XGli luciferase reporter or the empty vector (pGL3b). Cells were subsequently treated with control vehicle, 5 μM Oxy34, or 400 ng/ml recombinant human sonic hedgehog (Shh) as positive control. After 48 hours of treatments, reporter luciferase activity was measured and normalized to Renilla luciferase activity (See FIG. 15). […] After 48 hours of treatments, mRNA was extracted from cells and analyzed by Q-RT-PCR for expression of hedgehog target genes Gli 1 and Patched (See FIGS. 16A and 16B). […] Luciferase reporter activity using a reporter construct with 8X-Gli binding sites • 2. Q-RT-PCR analysis of the induction of hedgehog pathway target gene expression Gli 1 and Patched • 3.

[2] = test system: TCF/Lef transcriptional activity; test: TCF/Lef luciferase reporter assay (TBE4-luc); settings: M2 cells, 24 hours; 5 μM SS, 200 ng/ml Shh or 40 mM LiCl
Protocol: (§1) M2-10B4 cells at 70% confluence were transfected for 24 hours using FuGENE 6 Transfection Reagent (Roche Applied Science, Indianapolis, Ind.) according to manufacturer's instructions. The wild-type and mutant TCF/LEF binding site driven luciferase constructs (TBE4-luc and TBE4-luc-mut, repectively) were generous gifts from Dr. Baruch Frenkel (University of Southern California, Los Angeles, Calif.), and the Cyclin D1 promoter element-driven luciferase construct (Cyclin D1-luc) was a generous gift from Dr. Fanxin Long (Washington University, St. Louis, Mo.). Firefly luciferase values were normalized to Renilla luciferase activity and pEGFP-NI was used to evaluate transfection efficiency. Cells were then treated for 24, 48, or 72 hours with test agents before measuring luciferase activity using the Dual-Luciferase Reporter 1000 Assay System (Promega, Madison, Wis.) according to the manufacturer's instructions.
M2 cells were transfected with a luciferase reporter driven by 4 wild-type or mutant TCF/Lef DNA binding sites (TBE4-luc and TBE4-luc-mut, respectively) and analyzed for their response to 5 μM SS, 200 ng/ml Shh, 40 mM LiCl, or control vehicle after 24 h of treatment (see FIG. 3A).

[3] = test system: TCF/Lef transcriptional activity (Cyclin D1 promoter element); test: Cyclin D1 promoter element luciferase reporter assay (Cyclin D1-luc); settings: M2 cells, 24 hours; 5 μM SS or 40 mM LiCl
Protocol: as §1
M2 cells were transfected with a luciferase reporter driven by a Cyclin D1 promoter element (Cyclin D1-luc) and analyzed for their response to 5 μM SS, 40 mM LiCl, or control vehicle after 24 h of treatment (see FIG. 3B).

[4] = test system: Cyclin D1 mRNA expression; test: Q-RT-PCR for Cyclin D1 mRNA expression; settings: M2 cells
Protocol: (§2) Total RNA was extracted with the RNA isolation kit from Stratagene (La Jolla, Calif.) according to the manufacturer's instructions. RNA was DNase-treated using the DNA-free kit from Ambion, Inc. (Austin, Tex.). 3 μg of RNA was reverse-transcribed using reverse transcriptase from Stratagene (La Jolla, Calif.) to make single stranded cDNA. The cDNAs were mixed with Qi SYBR Green Supermix from Bio-Rad Laboratories (Hercules, Calif.) for quantitative RT-PCR using a Bio-Rad I-cycler IQ quantitative thermocycler. All PCR samples were prepared in triplicate or quadruplicate. Each sample was added to duplicate wells of a 96-well plate. After 40 cycles of PCR, melt curves were analyzed in order to ensure primer specificity, and the identity of all PCR products were verified by sequencing and comparing with the complete mRNA sequence obtained from PubMed's GenBank. Fold changes in gene expression were calculated using the ΔΔCt method (14). All primers were designed using the Beacon Designer software from Bio-Rad Laboratories (Hercules, Calif.). […]
M2 cells were treated with 5 μM SS, 200 ng/ml Shh, or control vehicle for 8 or 48 h. RNA was isolated and analyzed by Q-RT-PCR for Cyclin D1 expression (See FIGS. 4C and 4D).

[5] = test system: Axin2 mRNA expression; test: Q-RT-PCR for Axin2 mRNA expression; settings: M2 cells, 8 and 48 hours; 5 μM SS, 200 ng/ml Shh, 40 mM LiCl
Protocol: as §2
M2 cells were treated with 5 μM SS, 200 ng/ml Shh, 40 mM LiCl, or control vehicle for 8 or 48 h. RNA was isolated and analyzed by Q-RT-PCR for Axing expression (See FIGS. 4A and 4B).

Row | SMILES | Inhibition of oxysterol-induced hedgehog pathway activation [1] | TCF/Lef reporter activity compared to untreated control cells [2] | Cyclin D1 promoter element TCF/Lef reporter activity [3] | Cyclin D1 mRNA expression ([4]; 8 hours) | Cyclin D1 mRNA expression ([4]; 48 hours) | Axin2 mRNA expression [5]
1 | O=c1cc(N2CCOCC2)oc2c(-c3ccccc3)cccc12 [LY, LY 294002] | did not inhibit | – | – | – | – | –
2 | [Cl-].[Li+] [LiCl, lithium chloride] | – | significantly induced | activated | did not induce | inhibited its baseline expression | induced its expression at both time points
